The record followed here is patent US8354436B2 (4SC Discovery GmbH, priority 2011, dated 2013).

Holding throughout (assay type): cell-based
Assay [1] relates to IFN-γ. In words: IFN-γ production by PHA-stimulated human PBMC (OptEIA human IFN-g ELISA). The settings on record: PHA-stimulated human PBMC, 48 hours; column C; read-out: IC50 (IFNγ). In short, it runs like this: (§1)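 PBMC from healthy donors, 1×10^5/well, 2 μg/ml PHA + compound, 48 h. Supernatant cytokine by Luminex bead assay or ELISA as listed. Screen at 10/1/0.1/0.01 μM; IC50 via semilog titration.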
On the technique in general: ELISA stands for enzyme-linked immunosorbent assay.

Assay [2] has as its system PBMC from healthy human donors. In words: T cell proliferation assay (PHA-stimulated human PBMC, BrdU ELISA). The settings on record: PHA-stimulated human PBMC, 48 hours, column D, read-out: IC50 (Tcell proliferation). In short, it runs like this:
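Healthy-donor PBMC isolated on Ficoll, seeded at 1×10⁵ cells/well in RPMI with 10% dialysed FCS, stimulated with 2 μg/ml PHA in presence of test compound. Proliferation read after 48 hours by BrdU-incorporation ELISA.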
(Dividing cells build labelled thymidine or BrdU into new DNA.)

Assay [3] concerns IL-17AA/AF. In words: IL-17AA/AF production by PHA-stimulated human PBMC (Luminex BioPlex assay). The settings on record: 48 hours, column A, values marked with *, read-out: IC50 (IL-17AA), values marked with * determined by Luminex assay on IL17AA/AF. The protocol: (§2) Analysis of Proliferation of and Cytokine Production by Human PBMC Stimulated with PHA
(§3) Peripheral blood mononuclear cells (PBMC) from healthy human donors were purified using Accuspin™ System-Histopaque-1077 (Sigma) according to the protocol recommended by the manufacturer. Purified PBMC were then washed twice with phosphate-buffered saline (PBS) and resuspended in RPMI1640 culture medium supplemented with 10% dialyzed heat inactivated fetal calf serum, 1.5 mM L-glutamine, 100 U penicillin/ml, and […] (all from PAN Biotech, Aidenbach, Germany). For stimulation, PBMC were seeded at 1×10^5 cells/well, activated with 2 μg/ml phytohaemagglutinin (PHA, Sigma) and incubated with the test compounds for 48 hours. IL-17A, IL-17F and INF-γ were then determined in the culture supernatant using a Luminex BioPlex system, following the manufacturer's instructions (BioRad, Munich, Germany). For screening, compounds were used at 10, 1, 0.1 and 0.01 μM. To determine the IC50, compounds were titrated semilogarithmically.
(§4) Cytokines were determined in the aforementioned culture supernatant using the following methods: IL-17AA/AF was measured using the Luminex BioPlex system (BioRad, Munich, Germany); IL-17AA using the human homodimer IL-17A ELISA Ready Set Go Kit from eBioscience (Frankfurt, Germany); IL-17FF using the human IL-17F ELI-Pair from Hölzel DiagnosticaGmBH (Köln, Germany); and IFN-γ using the OptEIA human IFN-g ELISA from BD Bioscience (Heidelberg, Germany), all following the manufacturer's instructions.

Assay [4] concerns IL-17FF. Briefly: IL-17FF production by PHA-stimulated human PBMC (human IL-17F ELI-Pair). The settings on record: PHA-stimulated human PBMC, 48 hours; column B; read-out: IC50 (IL-17FF). The method, boiled down: as §1
The test system of assay [5] is IL-17AA. In words: IL-17AA production by PHA-stimulated human PBMC (human homodimer IL-17A ELISA). The following applies: PHA-stimulated human PBMC, 48 hours; column A, values without *; read-out: IC50 (IL-17AA). The protocol:
as §2, §3, §4

Each structure is given as a SMILES string. Where only a bound is given, the exact number is not on record here.

Take `COC(=O)c1c(-c2c(F)cccc2Cl)noc1-c1cnn(-c2cccc(F)c2)c1C(F)(F)F` [Example I-5, methyl 3-(2-chloro-6-fluorophenyl)-5-(1-(3-fluorophenyl)-5-(trifluoromethyl)-1H-pyrazol-4-yl)isoxazole-4-carboxylate]: the IC50 in assay [1], in assay [2], in assay [3] and in assay [4] was under 10 nM each time.

As for `COC(=O)c1c(-c2c(F)cccc2Cl)noc1-c1cnn(-c2ccccc2)c1C(F)(F)F` [Example I-48, methyl 3-(2-chloro-6-fluorophenyl)-5-(1-phenyl-5-(trifluomethyl)1H-pyrazol-4-yl)isoxazole-4-carboxylate], the IC50 in assay [1] is 10 to 100 nM; in assay [2], 10 to 100 nM; in assay [5], 100 to 1000 nM; in assay [4], 10 to 100 nM.

`CNC(=O)c1c(-c2c(F)cccc2Cl)noc1-c1cnn(-c2ccc(F)cc2F)c1C(F)(F)F` [Example I-57, 3-(2-chloro-6-fluorophenyl)-5-(1-(2,4-difluorophenyl)-5-(trifluoromethyl)-1H-pyrazol-4-yl)-N-methylisoxazole-4-carboxamide]: the IC50 in assay [1], in assay [2], in assay [5] and in assay [4] was 1000 to 10000 nM each time.

On to `CNC(=O)c1c(-c2c(F)cccc2Cl)noc1-c1cnn(-c2cccc(F)c2)c1C(F)(F)F` [Example I-62, 3-(2-chloro-6-fluorophenyl)-5-(1-(3-fluorophenyl)-5-(trifluoromethyl)-1H-pyrazol-4-yl)-N-methylisoxazole-4-carboxamide], for which the IC50 in assay [1] was 10 to 100 nM; in assay [2], 10 to 100 nM; in assay [3] it was 100 to 1000 nM; in assay [4] it was 10 to 100 nM.

Turning to `CON(C)C(=O)c1c(-c2c(F)cccc2Cl)noc1-c1cnn(-c2cccc(Cl)c2)c1C(F)(F)F` [Example I-63, 3-(2-chloro-6-fluorophenyl)-5-(1-(3-chlorophenyl)-5-(trifluoromethyl)-1H-pyrazol-4-yl)-N-methoxy-N-methylisoxazole-4-carboxamide], the IC50 in assay [1] was 100 to 1000 nM; in assay [2], 100 to 1000 nM; in assay [5], 100 to 1000 nM; in assay [4] it was 10 to 100 nM.

For the compound `CSC(=O)c1c(-c2c(F)cccc2Cl)noc1-c1cnn(-c2cccc(Cl)c2)c1C(F)(F)F` [Example I-126, S-methyl 3-(2-chloro-6-fluorophenyl)-5-(1-(3-chlorophenyl)-5-(trifluoromethyl)-1H-pyrazol-4-yl)isoxazole-4-carbothioate], the IC50 in assay [1] was under 10 nM; in assay [2] it was under 10 nM; in assay [3] it was 10 to 100 nM; in assay [4], under 10 nM.

As for `CSC(=O)c1c(-c2c(F)cccc2Cl)noc1-c1cnn(-c2cccc(F)c2)c1C(F)(F)F` [Example I-128, S-methyl 3-(2-chloro-6-fluorophenyl)-5-(1-(3-fluorophenyl)-5-(trifluoromethyl)-1H-pyrazol-4-yl)isoxazole-4-carbothioate], the IC50 in assay [1], in assay [2], in assay [3] and in assay [4] was under 10 nM throughout.

For `CCOC(=O)c1c(-c2c(F)cccc2Cl)noc1-c1cnn(-c2cccc(NC(C)=O)c2)c1C(F)(F)F` [IB-70, ethyl 5-(1-(3-acetamidophenyl)-5-(trifluoromethyl)-1H-pyrazol-4-yl)-3-(2-chloro-6-fluorophenyl)isoxazole-4-carboxylate], the IC50 in assay [1], in assay [2], in assay [5] and in assay [4] was 10 to 100 nM in each case.
